Patent publication US20120184590A1, “FORMULATIONS OF INDOLE-3-CARBINOL DERIVED ANTITUMOR AGENTS WITH INCREASED ORAL BIOAVAILABILITY” (UNIVERSITY OF KANSAS, priority 2009, published 2012)

Experiment: Stability of SR13668 in Solutol (25° C. and 4° C.), HPLC/Fluorescence
Format: physicochemical
Settings: for stability: 25° C. and 4° C.; for SR13668 assay, stability of SR13668/Solutol aqueous solution: aqueous sample (theoretical 1.2000); for SR13668 assay, stability in Solutol: solid sample in Eppendorf tube
Procedure: A batch of 5 mg SR13668/g Solutol was made by stirring at 95° C. for 24 hrs. […] The sample was centrifuged while warm and no crystals were observed on the bottom of the tube. The sample was assayed from the top, middle and bottom of the centrifuge tube and there was no significant difference in the measurements. The SR13668 assay is an isocratic HPLC method with Fluorescence detection. The SR13668 concentration in Solutol was determined to be 5.00±0.09 mg/g (n=5).
Three types of samples from the above formulation (a. Solid Samples, b. Aqueous Solution and c. Solid stored and combined with water before assay) were stored at 25° C. (constant temperature bath) and 4° C. (refrigerator) and assayed weekly with the same HPLC/Fluorescence analytical method for 1-month.
Eppendorf tubes containing 1-mL samples of the above 5 mg SR13668/g Solutol solution were capped and stored under the two temperature conditions described above. At each time point the samples were melted and centrifuged at 95° C. No solids were ever observed in these samples.
In a 50-mL centrifuge tube, 12 g of the 5 mg SR13668/g Solutol melt was accurately weighed. The tube was tared and water, warmed to 70° C., was added to the 50 mL mark on the tube and weighed. The concentration of SR13668 in the aqueous solution was calculated based on the average SR13668/Solutol concentration of 5.00±0.09 mg/g, the weight of the Solutol and the total weight of solution in the tube. The tube was stored under the two temperature conditions described previously and the assayed amounts were compared with the theoretical. Observations were made on the tubes and there were no significant changes in the solutions and no solids were observed. The 25° C. tube did get a cloudy film layer, possibly biological growth. The layer dispersed after vigorous shaking. The 4° C. samples are cloudy, but clear up when warmed to room temperature. See results Table 8 and FIG. 5.
An accurately weighed 200 mg aliquot of the above 5 mg/g Solutol solution was stored at 25° C. and 4° C. At each time point, the solids were melted at 90° C. and 800 mg of accurately weighed 90° C. water was added. The samples were mixed and observations made. In all cases no solids were observed. A sample aliquot of the above aqueous solution was analyzed by HPLC/Fluorescence and the results compared with theoretical. See results Table 9 and FIG. 6. The analytical method is validated ±5% from theoretical. The majority of the samples fell within this limit.

[1] = stored as solid, prepared as aqueous solution, 4° C. storage, 0
[2] = stored as solid, prepared as aqueous solution, 4° C. storage, Day
[3] = stored as solid, prepared as aqueous solution, 4° C. storage, Day 7
[4] = stored as solid, prepared as aqueous solution, 4° C. storage, Day 14
[5] = stored as solid, prepared as aqueous solution, 4° C. storage, Day 21
[6] = stored as solid, prepared as aqueous solution, 4° C. storage, Day 28
[7] = stored as solid, prepared as aqueous solution, 25° C. storage, 0
[8] = stored as solid, prepared as aqueous solution, 25° C. storage, Day
[9] = stored as solid, prepared as aqueous solution, 25° C. storage, Day 7
[10] = stored as solid, prepared as aqueous solution, 25° C. storage, Day 14
[11] = stored as solid, prepared as aqueous solution, 25° C. storage, Day 21
[12] = stored as solid, prepared as aqueous solution, 25° C. storage, Day 28

SMILES: CCOC(=O)c1ccc2[nH]c3c(OC)c4[nH]c5ccc(C(=O)OCC)cc5c4cc3c2c1 [SR13668, 2,10-dicarbethoxy-6-methoxy-5,7-dihydro-indolo-(2,3-b)carbazole]
- stability (5 mg SR13668/g Solutol, solid samples): stable within the error of the assay and no degradation was observed
- stability (SR13668/Solutol aqueous solution): stable within error and no drug degradation was observed
- SR13668 assay, stability of SR13668/Solutol aqueous solution (4° C. storage, Day): 1.1384 mg SR13668/g Solutol
- SR13668 assay, stability of SR13668/Solutol aqueous solution (4° C. storage, Day 7): 1.1758 mg SR13668/g Solutol
- SR13668 assay, stability of SR13668/Solutol aqueous solution (4° C. storage, Day 14): 1.1981 mg SR13668/g Solutol
- SR13668 assay, stability of SR13668/Solutol aqueous solution (4° C. storage, Day 21): 1.2509 mg SR13668/g Solutol
- SR13668 assay, stability of SR13668/Solutol aqueous solution (4° C. storage, Day 28): 1.1985 mg SR13668/g Solutol
- SR13668 assay, stability of SR13668/Solutol aqueous solution (4° C. storage, Day 35): 1.1814 mg SR13668/g Solutol
- SR13668 assay, stability of SR13668/Solutol aqueous solution (25° C. storage, Day): 1.5040 mg SR13668/g Solutol
- SR13668 assay, stability of SR13668/Solutol aqueous solution (25° C. storage, Day 7): 1.1311 mg SR13668/g Solutol
- SR13668 assay, stability of SR13668/Solutol aqueous solution (25° C. storage, Day 14): 1.2256 mg SR13668/g Solutol
- SR13668 assay, stability of SR13668/Solutol aqueous solution (25° C. storage, Day 21): 1.2663 mg SR13668/g Solutol
- SR13668 assay, stability of SR13668/Solutol aqueous solution (25° C. storage, Day 28): 1.2116 mg SR13668/g Solutol
- SR13668 assay, stability of SR13668/Solutol aqueous solution (25° C. storage, Day 35): 1.1942 mg SR13668/g Solutol
- SR13668 assay, stability in Solutol (4° C. storage, 0 (t = 0 melt samples)): 5.00 mg SR13668/g Solutol
- SR13668 assay, stability in Solutol (4° C. storage, Day): 5.05 mg SR13668/g Solutol
- SR13668 assay, stability in Solutol (4° C. storage, Day 7): 4.97 mg SR13668/g Solutol
- SR13668 assay, stability in Solutol (4° C. storage, Day 14): 5.33 mg SR13668/g Solutol
- SR13668 assay, stability in Solutol (4° C. storage, Day 21): 5.06 mg SR13668/g Solutol
- SR13668 assay, stability in Solutol (4° C. storage, Day 28): 4.97 mg SR13668/g Solutol
- SR13668 assay, stability in Solutol (4° C. storage, Day 35): 4.87 mg SR13668/g Solutol
- SR13668 assay, stability in Solutol (25° C. storage, 0 (t = 0 melt samples)): 5.00 mg SR13668/g Solutol
- SR13668 assay, stability in Solutol (25° C. storage, Day): 4.93 mg SR13668/g Solutol
- SR13668 assay, stability in Solutol (25° C. storage, Day 7): 5.10 mg SR13668/g Solutol
- SR13668 assay, stability in Solutol (25° C. storage, Day 14): 5.19 mg SR13668/g Solutol
- SR13668 assay, stability in Solutol (25° C. storage, Day 21): 5.14 mg SR13668/g Solutol
- SR13668 assay, stability in Solutol (25° C. storage, Day 28): 5.00 mg SR13668/g Solutol
- SR13668 assay, stability in Solutol (25° C. storage, Day 35): 4.93 mg SR13668/g Solutol
- stability (stored as solid, prepared as aqueous solution): no trends or indications that the samples are unstable
- % difference from Theory [1]: −6.71%
- Measured mg SR13668/g Solutol [1]: 0.9238 mg SR13668/g Solutol
- % difference from Theory [2]: −7.00%
- Measured mg SR13668/g Solutol [2]: 0.8804 mg SR13668/g Solutol
- % difference from Theory [3]: 0.78%
- Measured mg SR13668/g Solutol [3]: 0.9866 mg SR13668/g Solutol
- % difference from Theory [4]: 2.91%
- Measured mg SR13668/g Solutol [4]: 1.0608 mg SR13668/g Solutol
- % difference from Theory [5]: −2.29%
- Measured mg SR13668/g Solutol [5]: 0.9809 mg SR13668/g Solutol
- % difference from Theory [6]: −4.87%
- Measured mg SR13668/g Solutol [6]: 0.9160 mg SR13668/g Solutol
- % difference from Theory [7]: −11.50%
- Measured mg SR13668/g Solutol [7]: 0.8630 mg SR13668/g Solutol
- % difference from Theory [8]: −6.56%
- Measured mg SR13668/g Solutol [8]: 0.9955 mg SR13668/g Solutol
- % difference from Theory [9]: 3.38%
- Measured mg SR13668/g Solutol [9]: 1.0308 mg SR13668/g Solutol
- % difference from Theory [10]: 3.40%
- Measured mg SR13668/g Solutol [10]: 0.9609 mg SR13668/g Solutol
- % difference from Theory [11]: −5.45%
- Measured mg SR13668/g Solutol [11]: 0.9374 mg SR13668/g Solutol
- % difference from Theory [12]: −4.84%
- Measured mg SR13668/g Solutol [12]: 0.9372 mg SR13668/g Solutol
